The record followed here is PMC8626775, “Anti-schistosomal activities of quinoxaline-containing compounds: From hit identification to lead optimisation” (European Journal of Medicinal Chemistry, 2021).

For orientation: EC50 means the midpoint of the concentration-response curve.

In the test the test system is S. mansoni schistosomula. Description: S. mansoni schistosomula high-throughput phenotype and motility screen (Roboworm), 72 h. Type of test: cell-based, Schistosoma mansoni. The following applies: for EC50: Schistosoma mansoni; for Effect on phenotype and motility of S. mansoni schistosomula: primary tested concentrations 10 and 50 μM. The method, then:
Cercariae derived from the NMRI ([…]) Puerto Rican strain (PR-1) of S. mansoni were shed from two Biomphalaria glabrata strains, the NMRI albino and pigmented outbred strains, under intensified lighting conditions (1 h of incubation at 26 °C). Cercariae were then mechanically transformed into schistosomula as previously described.
High-throughput screening (HTS) of selected compounds was conducted as previously described. Briefly, newly transformed schistosomula were distributed in a 384-well tissue culture plate (PerkinElmer, cat 6007460, seeding density of 120 parasites/well). Each compound (at a single concentration or two-fold titrations) was transferred into individual wells alongside the positive and negative controls (AUR at 10 μM final concentration in 0.625% DMSO and 0.625% DMSO, respectively). Schistosomula/compound co-cultures were then incubated at 37 °C for 72 h in a humidified atmosphere containing 5% CO2. Following the co-culture period, automatic assessment of compound-induced schistosomula motility and phenotypic changes were conducted with the high-content imaging platform Roboworm using the image analysis model previously described by Paveley et al..

The mark [1] stands for this setting: 72 h, Table 1, 72 h, two dose response titrations (0.313–10 μM), 95% CI in brackets, read-out: Activity on schistosomula (EC50, μM - 72 h) Motility.
Setting [2] is: 72 h, Table 1, 72 h, two dose response titrations (0.313–10 μM), 95% CI in brackets, read-out: Activity on schistosomula (EC50, μM - 72 h) Phenotype.
Where [3] appears, read: 72 h, Table 1, mean of phenotype and motility EC50, 72 h, read-out: Activity on schistosomula (EC50, μM - 72 h) Average.
The mark [4] stands for this setting: Fig. S3, average schistosomula EC50, read-out: EC50 (Fig. S3, anti-schistosomula activity).
The mark [5] stands for this setting: 72 h, Table 2, motility, 72 h, three replicate titrations (0.313–10 μM), read-out: Activity on schistosomula (EC50, μM - 72 h) M.
Where [6] appears, read: 72 h, Table 2, phenotype, 72 h, three replicate titrations (0.313–10 μM), read-out: Activity on schistosomula (EC50, μM - 72 h) P.
[7] abbreviates: 72 h, Table S7, motility, 95% CI in brackets, read-out: Activity on schistosomula (EC50, µM - 72 h) (95% CI) M.
Setting [8] is: 72 h, Table S7, phenotype, 95% CI in brackets, read-out: Activity on schistosomula (EC50, µM - 72 h) (95% CI) P.
The mark [9] stands for this setting: Table 5, Series C, read-out: Anti-schistosomal activity EC50 Schistosomula (μM) Motility.
[10] abbreviates: Table 5, Series C, read-out: Anti-schistosomal activity EC50 Schistosomula (μM) Phenotype.
The mark [11] stands for this setting: Table 3, read-out: Anti-schistosomal activity EC50 (μM) Schistosomula Motility.
Where [12] appears, read: Table 3, read-out: Anti-schistosomal activity EC50 (μM) Schistosomula Phenotype.
The mark [13] stands for this setting: 72 h, read-out: EC50 on schistosomula (bounds and ranges given).

SMILES strings stand for the structures. Where two headings read alike, the source gives them in different places. Bounds are passed on as bounds.

For `Fc1ccccc1Nc1nc2ccccc2nc1Nc1ccccc1F` [Compound 13], the EC50 was greater than 10 µM under setting [1] and greater than 10 µM under setting [2]. For the same molecule, under “72 h”, the “Effect on phenotype and motility of S. mansoni schistosomula” value (“Effect on phenotype and motility” for short) is listed as “weak effect”.
Consider `CCOC(=O)c1ccc(Nc2nc3ccccc3nc2Nc2ccc(C(=O)OCC)cc2)cc1` [Compound 10], for which the “Activity on schistosomula in the primary screen at 10 μM” value (shortened to “Activity on schistosomula … at 10 μM”) (72 h) is reported as “retained activity”. Besides, the EC50 by setting is: under setting [1], 5.83 µM; under setting [2], 5.12 µM; under setting [3], 5.47 µM.
With `Cc1ccc2[nH]c(=Nc3ccccc3C)c(=Nc3ccccc3C)[nH]c2c1` [Compound 5], the EC50 is greater than 10 µM under setting [1] and greater than 10 µM under setting [2]. For the same molecule, the “Effect on phenotype and motility” value (72 h) is listed as “weak effect”.
For `FC(F)(F)c1cccc(Oc2nc3ccccc3nc2Oc2cccc(C(F)(F)F)c2)c1` [Compound 12], the EC50 was greater than 10 µM under setting [1], greater than 10 µM under setting [2] and greater than 10 µM under setting [4]. Further, the “Effect on phenotype and motility” value (72 h) was “weak effect”.
On to `OCc1cccc(N=c2[nH]c3ccccc3[nH]c2=Nc2cccc(CO)c2)c1` [Compound 7], for which the EC50 was greater than 10 µM under setting [1] and greater than 10 µM under setting [2]. Further, the “Effect on phenotype and motility” value (72 h) is “weak effect”.
Turning to `c1ccc(-c2nc3ccccc3nc2-c2ccccc2)cc1` [Compound 18], the EC50 by setting is: under setting [1], greater than 10 µM; under setting [2], greater than 10 µM. The “Effect on phenotype and motility” value (72 h) is “weak effect”.
Consider `O=C(O)C=Cc1cccc(Nc2nc3ccc([N+](=O)[O-])cc3nc2Nc2cccc(C=CC(=O)O)c2)c1` [Compound 24], for which the EC50 by setting is: under setting [1], greater than 10 µM; under setting [2], greater than 10 µM. In addition, the “Effect on phenotype and motility” value (72 h) is reported as “weak effect”.
In the case of `O=C(Nc1ccc2nc(Nc3ccc(Cl)c(Cl)c3)c(Nc3ccc(Cl)c(Cl)c3)nc2c1)C1CCCCC1` [Compound 22e, N-(2,3-bis((3,4-dichlorophenyl)amino)quinoxalin-6-yl)cyclohexanecarboxamide], the EC50 reads like this: under setting [5], greater than 50 µM; under setting [6], greater than 50 µM; under setting [7], greater than 50 µM; under setting [8], greater than 50 µM; under setting [9], greater than 50 µM; under setting [10], greater than 50 µM.
For the molecule `O=C(Nc1ccc2nc(Nc3ccc(Cl)c(Cl)c3)c(Nc3ccc(Cl)c(Cl)c3)nc2c1)c1cccc(C(F)(F)F)c1` [Compound 22g, N-(2,3-bis((3,4-dichlorophenyl)amino)quinoxalin-6-yl)-3-(trifluoromethyl)benzamide], the EC50 is, setting by setting: under setting [5], greater than 50 µM; under setting [6], greater than 50 µM; under setting [7], greater than 50 µM; under setting [8], greater than 50 µM; under setting [9], greater than 50 µM; under setting [10], greater than 50 µM.
For the molecule `COc1ccc(OC)c(Nc2nc3ccccc3nc2Nc2cc(OC)ccc2OC)c1` [Compound 8], the EC50 under setting [1] is greater than 50 µM, the EC50 under setting [2] is greater than 50 µM and the EC50 under setting [4] was greater than 50 µM. Besides, where the note is “72 h”, the “Effect on phenotype and motility” value was “did not have any effect”.
Take `CCOc1ccc(Nc2nc3ccccc3nc2Nc2ccc(OCC)cc2)cc1` [Compound 9]: the “Activity on schistosomula … at 10 μM” value (72 h) is recorded as “retained activity”. For the same molecule, the EC50 turned out to be 4.87 µM under setting [1], 5.92 µM under setting [2] and 5.39 µM under setting [3].
Consider `O=[N+]([O-])c1ccc2nc(O)c(O)nc2c1` [6-nitro-2,3-dihydroxy-quinoxaline], for which the EC50 by setting is: under setting [5], greater than 50 µM; under setting [6], greater than 50 µM; under setting [7], greater than 50 µM; under setting [8], greater than 50 µM; under setting [11], greater than 50 µM; under setting [12], greater than 50 µM.
Consider `Clc1ccc(Nc2nc3ccc(N4CCCC4)cc3nc2Nc2ccc(Cl)c(Cl)c2)cc1Cl` [Compound 22b, N^2, N^3-bis(3,4-dichlorophenyl)-6-(pyrrolidin-1-yl)quinoxaline-2,3-diamine], for which, for the setting “50 μM, 72 h”, the “Activity on schistosomula in the primary screen at 50 μM” value is listed as “affected schistosomula motility, but not phenotype”. Further, the EC50 is, setting by setting: under setting [5], greater than 10 µM; under setting [6], greater than 10 µM; under setting [7], greater than 10 µM; under setting [8], greater than 10 µM; under setting [9], greater than 10 µM; under setting [10], greater than 10 µM.
In the case of `Cc1ccc(Nc2nc3ccccc3nc2Nc2ccc(C)c(Cl)c2)cc1Cl` [Compound 17], the “Activity on schistosomula … at 10 μM” value (72 h) is “retained activity”. Also, the EC50 runs as follows: under setting [1], 2.45 µM; under setting [2], 2.88 µM; under setting [3], 2.66 µM; under setting [13], 1 to 2 µM.
Regarding `O=[N+]([O-])c1ccc2nc(Cl)c(Cl)nc2c1` [2,3-dichloro-6-nitroquinoxaline], the EC50 runs as follows: under setting [5], greater than 10 µM; under setting [6], greater than 10 µM; under setting [7], greater than 10 µM; under setting [8], greater than 10 µM; under setting [11], greater than 10 µM; under setting [12], greater than 10 µM.
`Cc1ccc(Sc2nc3ccccc3nc2Sc2ccc(C)cc2)cc1` [Compound 14]: the EC50 was greater than 50 µM under setting [1], greater than 50 µM under setting [2] and greater than 50 µM under setting [4]. Where the note is “72 h”, the “Effect on phenotype and motility” value was “did not have any effect”.
Consider `Cc1cccc(Nc2nc3ccc([N+](=O)[O-])cc3nc2Nc2cccc(C)c2C)c1C` [Compound 27, N2, N3-bis(2,3-dimethylphenyl)-6-nitroquinoxaline-2,3-diamine], for which the EC50 runs as follows: under setting [5], greater than 10 µM; under setting [6], greater than 10 µM; under setting [7], greater than 10 µM; under setting [8], greater than 10 µM; under setting [13], greater than 10 µM; (Table 4, Series A, read-out: Anti-schistosomal activity EC50 Schistosomula (μM) Motility) greater than 10 µM. Further, the EC50 (Table 4, Series A, read-out: Anti-schistosomal activity EC50 Schistosomula (μM) Phenotype) was greater than 10 µM.
In the case of `COc1ccc(/N=c2\[nH]c3ccccc3s\c2=N\c2ccc(OC)cc2)cc1` [Compound 3], the concentration for a half-maximal effect (EC50) under setting [1] is greater than 50 µM, the EC50 under setting [2] was greater than 50 µM and the EC50 under setting [4] was greater than 50 µM. The “Effect on phenotype and motility” value (72 h) is recorded as “did not have any effect”.
In the case of `COc1ccc2nc(Nc3ccccc3)c(Nc3ccccc3)nc2c1` [Compound 6], the concentration giving a half-maximal response (EC50) reads like this: under setting [1], greater than 10 µM; under setting [2], greater than 10 µM; under setting [4], greater than 10 µM. Moreover, where the note is “72 h”, the “Effect on phenotype and motility” value is given as “weak effect”.
Turning to `Cc1ccc(Nc2nc3ccccc3nc2Nc2ccc(C)cc2)cc1` [Compound 15], the EC50 is greater than 10 µM under setting [1], greater than 10 µM under setting [2] and greater than 10 µM under setting [4]. In addition, the “Effect on phenotype and motility” value (72 h) is on record as “weak effect”.
With `Cc1ccc(/N=c2\[nH]c3ccccc3s\c2=N\c2ccc(C)cc2)cc1` [Compound 2], the EC50 is, setting by setting: under setting [1], greater than 50 µM; under setting [2], greater than 50 µM; under setting [4], greater than 50 µM. Also, the “Effect on phenotype and motility” value (72 h) is recorded as “did not have any effect”.
As for `FC(F)(F)c1cccc(/N=c2\[nH]c3ccccc3s\c2=N\c2cccc(C(F)(F)F)c2)c1` [Compound 4], the EC50 runs as follows: under setting [1], greater than 50 µM; under setting [2], greater than 50 µM; under setting [4], greater than 50 µM. For the same molecule, the “Effect on phenotype and motility” value (72 h) is given as “did not have any effect”.
